# Compound: N[C@@H]1CCCN(c2c(/C=C3\SC(=O)NC3=O)cccc2-c2ccccc2)C1 [AZD1208] + COc1cccc2cc(-c3nc([C@H]4CC[C@H](C(=O)O)CC4)n4ncnc(N)c34)[nH]c12 [OSI-027] (partner 0.5 µM)
# Experiment: relative viability (nuclei count vs DMSO), 5 days (fraction); higher = more cells survive
# Conditions: first compound 0.08 µM
# Method in brief: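 Cells from lung cancer lines were seeded into 1536-well plates and, one day later, dosed by pin tool. Treatments were either a single drug or a fixed dose of an anchor drug with five library-drug doses (not always all listed) in √10 steps. After 5 days, nuclei were stained in a one-step fixation (final 0.05% Triton X-100, 1% formaldehyde, 1 ug/ml Hoechst) and counted on 4× images, and relative viability is the treated-to-vehicle nuclei ratio, as the median of duplicate plates.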
row,Cell Line,relative viability
1,NCI-H2347,0.321
2,NCI-H650,0.574
3,CAL-12T,0.61
4,NCI-H1651,0.679
5,EPLC-272H,0.255
6,NCI-H23,0.576
7,NCI-H1792,0.679
8,NCI-H1355,0.389
9,NCI-H322M,0.569
10,NCI-H1437,0.821
11,NCI-H1755,0.69
12,NCI-H2085,0.796
13,HCC-15,0.63
14,PC-3 [JPC-3],0.8
15,EKVX,0.674
16,LC-2-ad,0.788
17,NCI-H1563,0.721
18,NCI-H1944,0.407
19,NCI-H1975,0.682

# Same assay, conditions: first compound 0.253 µM
row,Cell Line,relative viability
1,HCC-44,0.496
2,LU99A,0.29
3,BEN,0.254
4,HARA,0.497
5,HCC-78,0.395
6,LCLC-97TM1,0.476
7,NCI-H2023,0.339
8,A-427,0.543
9,NCI-H460,0.853
10,NCI-H727,0.561
11,NCI-H1734,0.534
12,NCI-H520,0.258
13,NCI-H2405,0.575
14,SW 1573,0.548
15,201T,0.78
16,NCI-H1915,0.524
17,HCC-827,0.751
18,LXF-289,0.814
19,NCI-H2347,0.344

row,Cell Line,relative viability
1,NCI-H650,0.435
2,CAL-12T,0.668
3,NCI-H1651,0.878
4,EPLC-272H,0.289
5,NCI-H23,0.705
6,NCI-H1792,0.778
7,NCI-H1355,0.31
8,NCI-H322M,0.514
9,NCI-H1437,1.07
10,NCI-H1755,0.617
11,NCI-H2085,0.933
12,HCC-15,0.673
13,PC-3 [JPC-3],0.698
14,EKVX,0.651
15,LC-2-ad,0.776
16,NCI-H1563,0.708
17,NCI-H1944,0.341
18,NCI-H1975,0.688

# Same assay, conditions: first compound 0.8 µM
row,Cell Line,relative viability
1,HCC-44,0.512
2,LU99A,0.291
3,BEN,0.278
4,HARA,0.468
5,HCC-78,0.375
6,LCLC-97TM1,0.344
7,NCI-H2023,0.324
8,A-427,0.469
9,NCI-H460,0.633
10,NCI-H727,0.414
11,NCI-H1734,0.495
12,NCI-H520,0.189
13,NCI-H2405,0.56
14,SW 1573,0.451
15,201T,0.512
16,NCI-H1915,0.569
17,HCC-827,0.707
18,LXF-289,0.602
19,NCI-H2347,0.329
20,NCI-H650,0.477
21,CAL-12T,0.583
22,NCI-H1651,0.534
